Laboratory results reported in ChEMBL document CHEMBL1143045, “Tricyclic isoxazolines: identification of R226161 as a potential new antidepressant that combines potent serotonin reuptake inhibition and alpha2-adrenoceptor antagonism” (Bioorg Med Chem, 2007).

Experiments:
[1] = biological target: T1, Alpha-2A adrenergic receptor (Homo sapiens, UniProt P08913); assay: Displacement of [3H]rawolscine from human cloned adrenergic alpha2A receptor transfected in CHO cells; type: cell-based
T1 sequence (P08913 whole entry): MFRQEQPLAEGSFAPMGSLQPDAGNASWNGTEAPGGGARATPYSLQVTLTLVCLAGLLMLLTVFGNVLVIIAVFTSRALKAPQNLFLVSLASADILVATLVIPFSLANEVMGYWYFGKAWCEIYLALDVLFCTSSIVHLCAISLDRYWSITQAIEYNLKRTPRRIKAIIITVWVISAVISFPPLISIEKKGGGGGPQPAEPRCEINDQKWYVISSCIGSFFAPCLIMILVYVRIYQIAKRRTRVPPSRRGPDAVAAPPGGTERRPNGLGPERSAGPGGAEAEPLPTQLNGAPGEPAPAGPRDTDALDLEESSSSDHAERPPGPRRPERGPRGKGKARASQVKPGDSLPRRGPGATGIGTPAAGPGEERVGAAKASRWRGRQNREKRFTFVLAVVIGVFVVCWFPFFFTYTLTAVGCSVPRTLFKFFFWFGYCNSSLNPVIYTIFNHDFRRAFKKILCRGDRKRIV

[2] = biological target: T2, Alpha-2B adrenergic receptor (Homo sapiens, UniProt P18089); assay: Displacement of [3H]rawolscine from human cloned adrenergic alpha-2B receptor transfected in CHO cells; type: cell-based
T2 sequence (P18089 whole entry): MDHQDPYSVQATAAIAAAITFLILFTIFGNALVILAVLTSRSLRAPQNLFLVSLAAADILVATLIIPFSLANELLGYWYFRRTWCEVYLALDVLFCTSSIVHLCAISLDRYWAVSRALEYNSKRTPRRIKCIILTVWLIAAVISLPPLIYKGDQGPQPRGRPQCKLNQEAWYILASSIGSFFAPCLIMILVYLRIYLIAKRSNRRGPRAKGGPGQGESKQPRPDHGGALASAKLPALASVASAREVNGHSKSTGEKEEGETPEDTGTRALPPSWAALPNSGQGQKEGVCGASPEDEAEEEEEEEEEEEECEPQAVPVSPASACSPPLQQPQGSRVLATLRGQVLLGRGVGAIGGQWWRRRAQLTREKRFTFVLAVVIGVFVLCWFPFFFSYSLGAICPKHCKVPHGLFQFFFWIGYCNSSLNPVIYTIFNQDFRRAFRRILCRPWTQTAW

[3] = biological target: T3, Alpha-2C adrenergic receptor (Homo sapiens, UniProt P18825); assay: Displacement of [3H]rawolscine from human cloned adrenergic Alpha-2C receptor transfected in CHO cells; type: cell-based
T3 sequence (P18825 whole entry): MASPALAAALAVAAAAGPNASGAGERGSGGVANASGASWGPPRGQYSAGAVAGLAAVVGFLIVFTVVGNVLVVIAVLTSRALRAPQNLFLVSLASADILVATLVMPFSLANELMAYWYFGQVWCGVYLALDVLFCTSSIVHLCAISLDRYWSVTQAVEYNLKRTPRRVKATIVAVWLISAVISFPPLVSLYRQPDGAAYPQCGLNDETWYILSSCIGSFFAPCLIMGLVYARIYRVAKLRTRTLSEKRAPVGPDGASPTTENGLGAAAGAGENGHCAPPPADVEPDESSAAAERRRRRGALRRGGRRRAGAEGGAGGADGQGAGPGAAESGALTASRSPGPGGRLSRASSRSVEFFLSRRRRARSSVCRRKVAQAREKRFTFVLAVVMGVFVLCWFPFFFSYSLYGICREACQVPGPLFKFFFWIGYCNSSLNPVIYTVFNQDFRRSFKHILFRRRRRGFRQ

[4] = biological target: Sodium-dependent serotonin transporter (Homo sapiens, UniProt P31645); assay: Displacement of [3H]paroxetine from human cloned 5HTT receptor transfected in CHO cells; type: cell-based
Sodium-dependent serotonin transporter, sequence (P31645 whole entry): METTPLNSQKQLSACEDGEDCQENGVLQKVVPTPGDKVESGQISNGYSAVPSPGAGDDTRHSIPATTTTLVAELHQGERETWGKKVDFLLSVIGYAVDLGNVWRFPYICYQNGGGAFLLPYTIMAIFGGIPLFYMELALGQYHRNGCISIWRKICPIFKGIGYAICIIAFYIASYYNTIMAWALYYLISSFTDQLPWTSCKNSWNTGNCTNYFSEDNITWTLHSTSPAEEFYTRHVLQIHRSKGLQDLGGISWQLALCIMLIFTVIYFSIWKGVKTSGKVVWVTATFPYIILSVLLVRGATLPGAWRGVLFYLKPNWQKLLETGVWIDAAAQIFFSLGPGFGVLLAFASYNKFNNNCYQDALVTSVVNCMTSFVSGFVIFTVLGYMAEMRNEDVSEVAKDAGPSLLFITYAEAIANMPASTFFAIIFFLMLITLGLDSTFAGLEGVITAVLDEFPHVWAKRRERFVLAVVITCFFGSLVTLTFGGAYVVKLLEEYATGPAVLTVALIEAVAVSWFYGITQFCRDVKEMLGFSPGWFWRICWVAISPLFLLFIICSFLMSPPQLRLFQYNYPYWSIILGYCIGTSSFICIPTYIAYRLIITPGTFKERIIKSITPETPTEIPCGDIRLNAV

[5] = biological target: Adrenergic receptor alpha-2 (Rattus norvegicus) (UniProt P22086+P19328+P22909); assay: Reversal of medetomidine-induced loss of righting reflex in sc dosed Wistar rat after 1hr; type: functional, organism-based
[6] = biological target: Sodium-dependent serotonin transporter (Rattus norvegicus) (UniProt P31652); assay: Antagonism of p-chloroamphetamine-induced excitation in sc dosed Wistar rat after 1 hr; type: functional, organism-based
Sodium-dependent serotonin transporter (Rattus norvegicus), sequence (P31652 whole entry): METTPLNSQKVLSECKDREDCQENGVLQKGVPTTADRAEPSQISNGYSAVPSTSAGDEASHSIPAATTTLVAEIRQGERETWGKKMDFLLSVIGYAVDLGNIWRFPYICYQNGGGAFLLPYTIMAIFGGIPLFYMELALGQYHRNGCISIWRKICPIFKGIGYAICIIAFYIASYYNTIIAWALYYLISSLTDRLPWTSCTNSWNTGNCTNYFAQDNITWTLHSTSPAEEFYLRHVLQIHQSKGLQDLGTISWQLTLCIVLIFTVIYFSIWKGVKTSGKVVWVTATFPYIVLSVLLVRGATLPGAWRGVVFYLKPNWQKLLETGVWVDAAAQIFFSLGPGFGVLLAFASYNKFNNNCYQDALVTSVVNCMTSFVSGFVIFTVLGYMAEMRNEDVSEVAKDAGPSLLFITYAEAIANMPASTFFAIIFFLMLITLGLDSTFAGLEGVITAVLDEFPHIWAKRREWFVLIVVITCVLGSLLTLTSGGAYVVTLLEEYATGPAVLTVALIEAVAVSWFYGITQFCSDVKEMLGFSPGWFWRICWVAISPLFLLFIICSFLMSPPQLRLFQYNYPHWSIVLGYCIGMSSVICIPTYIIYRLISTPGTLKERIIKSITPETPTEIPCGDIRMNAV

SMILES	Ki [1]	Ki [2]	Ki [3]	Ki [4]	ED50 [5]	ED50 [6]
COc1cc2c(cc1OC)C1=NOC(CN3CCN(C/C=C/c4ccc(F)cc4)CC3)C1CO2 (cis isomer)	117 nM	162 nM	72 nM	14 nM		
COc1cc2c(cc1OC)C1=NOC(CN3CCN(C/C=C/c4ccc(F)cc4)CC3)C1CO2 (racemic) [listing 1 of 2 here]	9 nM	25 nM	23 nM	5.6 nM		
COc1cc2c(cc1OC)C1=NO[C@@H](CN3CCN(C/C(C)=C/c4ccc(F)cc4)CC3)[C@@H]1CO2 (racemic) [listing 1 of 2 here]		8.4 nM				
COc1cc2c(cc1OC)C1=NOC(CN3CCN(C/C(C)=C/c4ccccc4)CC3)C1CN2 (racemic) [listing 1 of 2 here]		12 nM	0.1 nM	8.9 nM		
COc1cc2c(cc1OC)C1=NOC(CN3CCN(C/C(C)=C/c4ccccc4)CC3)C1CN2 (racemic) [listing 2 of 2 here]					0.2 mg/kg	2.2 mg/kg
COc1cc2c(cc1OC)C1=NOC(CN3CCN(C/C=C/c4ccc(F)cc4)CC3)C1CO2 (racemic) [listing 2 of 2 here]					0.1 mg/kg	4.7 mg/kg
COc1cc2c(cc1OC)C1=NO[C@@H](CN3CCN(C/C(C)=C/c4ccc(F)cc4)CC3)[C@@H]1CO2 (racemic) [listing 2 of 2 here]					0.1 mg/kg	
COc1cc2c(cc1OC)C1=NOC(CN3CCN(C/C=C/c4ccc(F)cc4)CC3)C1CO2 (single isomer, unassigned; (+))	54 nM	14 nM	4.5 nM	2.1 nM		
